Assays:
MAO = MAO inhibitory activity (Holts method, rat liver mitochondrial enzyme); format: biochemical
Procedure: (§1) Male SD rats were sacrificed by decapitation, operated on ice, their livers were removed, and the liver surface was washed with precooled phosphate buffer. The liver was cut into pieces, and after washing (using PBS), 20 mL of 0.3 M sucrose buffer was added for homogenization. After fully homogenized, it was balanced by a tray balance. Low–temperature differential centrifugation was performed, and the obtained SD rat liver mitochondrial concentrate was the experimental monoamine oxidase stock solution, and was stored in a −80 °C refrigerator.
(§2) Added 25 µL of enzyme dilution solution and 25 µL of test derivatives (control group plus rasagiline, blank group plus 10% DMSO) to 96–well plate, incubated at 37 °C for 1 h, then 120 µL of substrate was added, 80 µL of chromogenic solution was added, incubated at 37 °C for 30 min, and its absorbance measured at 490 nm. In addition, in order to exclude the influence of protein, a protein control group was established, only the enzyme dilution was added, and the rest were replaced with PBS, and the absorbance value was detected at a wavelength of 490 nm. The inhibition rate of each concentration was substituted into the calculation software GraphPad Prism 8 to calculate the IC50 value.

MAO–A = molecular target: T1, MAO–A (Rattus norvegicus, UniProt P21396); assay: MAO–A inhibitory activity (enzyme pre-incubated with pargyline); format: biochemical
T1 construct: the obtained SD rat liver mitochondrial concentrate was the experimental monoamine oxidase stock solution; from tissue; host or cells: male SD rat liver mitochondria
T1 sequence (P21396 1-526): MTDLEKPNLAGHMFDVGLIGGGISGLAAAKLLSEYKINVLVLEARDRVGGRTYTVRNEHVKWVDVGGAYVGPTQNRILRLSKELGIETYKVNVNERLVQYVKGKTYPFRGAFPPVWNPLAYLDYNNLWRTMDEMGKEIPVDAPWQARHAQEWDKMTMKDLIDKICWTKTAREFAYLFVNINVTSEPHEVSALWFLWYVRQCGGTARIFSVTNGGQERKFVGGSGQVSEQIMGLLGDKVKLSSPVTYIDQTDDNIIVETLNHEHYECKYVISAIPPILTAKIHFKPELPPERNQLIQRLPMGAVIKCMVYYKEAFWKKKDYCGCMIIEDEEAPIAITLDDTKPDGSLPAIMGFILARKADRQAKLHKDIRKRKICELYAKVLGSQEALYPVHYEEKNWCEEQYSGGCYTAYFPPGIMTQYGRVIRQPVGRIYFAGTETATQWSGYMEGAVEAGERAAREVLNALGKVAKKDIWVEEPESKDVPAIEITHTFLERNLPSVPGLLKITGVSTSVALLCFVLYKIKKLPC
Procedure: as §1, §2
(§3) The inhibition rate of each concentration was substituted into the calculation software GraphPad Prism 8 to calculate the IC50 value.

MAO–B = molecular target: T2, MAO–B (Rattus norvegicus, UniProt P19643); assay: MAO–B inhibitory activity (enzyme pre-incubated with chlorgiline); format: biochemical
T2 construct: the obtained SD rat liver mitochondrial concentrate was the experimental monoamine oxidase stock solution; from tissue; host or cells: male SD rat liver mitochondria
T2 sequence (P19643 1-520): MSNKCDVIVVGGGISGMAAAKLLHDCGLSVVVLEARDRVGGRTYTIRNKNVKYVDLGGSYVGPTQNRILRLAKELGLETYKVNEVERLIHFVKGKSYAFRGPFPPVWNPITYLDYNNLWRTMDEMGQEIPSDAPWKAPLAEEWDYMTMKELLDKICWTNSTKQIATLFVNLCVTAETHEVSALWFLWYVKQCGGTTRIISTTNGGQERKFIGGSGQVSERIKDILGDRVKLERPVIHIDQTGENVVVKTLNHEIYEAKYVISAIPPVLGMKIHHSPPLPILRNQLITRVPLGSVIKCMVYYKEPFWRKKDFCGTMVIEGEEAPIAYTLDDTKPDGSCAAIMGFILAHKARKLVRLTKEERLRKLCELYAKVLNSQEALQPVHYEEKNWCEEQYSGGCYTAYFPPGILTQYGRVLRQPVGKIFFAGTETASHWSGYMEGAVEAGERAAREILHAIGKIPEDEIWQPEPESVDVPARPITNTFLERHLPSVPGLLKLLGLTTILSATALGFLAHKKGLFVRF
Procedure: as §1, §2, §3

AChE = AChE (Homo sapiens, UniProt P22303); assay: biochemical; format: biochemical
Procedure: (§4) Each concentration was tested three times in parallel, and 96 empty plates were taken, and 20 µL of the test sample or positive drug (10% DMSO was added to the blank control), 40 µL of AChE or BuChE (0.2 U/mL) and 100 µL of DTNB (0.001 mol/L) were added in turn, mixed well and incubated in a constant temperature water bath at 37 °C for 15 min.

BuChE = BuChE (Homo sapiens, UniProt P06276); assay: biochemical; format: biochemical
Procedure: as §4

ICR male mice = assay: Forced swimming test (FST); format: in vivo; details: i.p., 30 mg/kg; for Duration of Immobility: 30 min after administration, mean ± SEM (n = 8); for DID (%) percentage decrease in immobility duration: vs control
Procedure: Pharmacological experiments of antidepressant activity used FST in mice, fluoxetine hydrochloride was used as a positive control, and the vehicle solvent PFG–400 was used as a blank control. The experiment used ICR male mice (20 ± 2 g). Six benzothiazole–quinoline derivatives were dissolved in polyethylene glycol–400, and 30 min after administration (i.p., 30 mg/kg), the mice were each placed in a glass cylinder, recording the time of immobility. Duration of immobility outcomes is expressed as mean ± SEM. The t-test was used to make comparisons between groups.

Cytotoxicity, MTT method = format: cell-based; details: mouse, L929 cells, 0–100 μM, read-out: cell viability (MTT)
Procedure: L929 (Shanghai Cell Bank, Chinese Academy of Sciences) cells were cultured in 10% fetal bovine serum: penicillin–streptomycin solution: MEM mixed medium with serum–free medium (10:1:90), and subcultured in a 5% carbon dioxide cell incubator at 37 °C, and the medium changed every other day.
In this experiment, L929 cells in the logarithmic growth phase were selected, and the cell density was adjusted to 2 × 10^4 cells per well. The cells were seeded in 96–well plates, and the 96–well plates seeded with cells were cultured in a 37 °C 5% carbon dioxide cell incubator. After 24 h, different concentrations of the test compound medium (6.5, 12.5, 25, 50, 100 μM) were added, and the blank group was added with drug–free medium, shaken gently, and placed at 37 °C 5%. The cells were cultured in a carbon dioxide cell incubator for 24 h, and each concentration was replicated 6 times. After 24 h, 20 μL of […] MTT solution (prepared in PBS with pH = 7.6) was added in the dark, and cultured in the cell incubator for another 4 h. After 4 h, the 96–well plate was taken out and the original medium was discarded. Added 160 μL DMSO, put it on a shaker and mixed well for about 10 min, used a microplate reader to measure its absorbance at 490 nm, recorded the results and analyzed.

Chain of BuChE (P06276 29-602): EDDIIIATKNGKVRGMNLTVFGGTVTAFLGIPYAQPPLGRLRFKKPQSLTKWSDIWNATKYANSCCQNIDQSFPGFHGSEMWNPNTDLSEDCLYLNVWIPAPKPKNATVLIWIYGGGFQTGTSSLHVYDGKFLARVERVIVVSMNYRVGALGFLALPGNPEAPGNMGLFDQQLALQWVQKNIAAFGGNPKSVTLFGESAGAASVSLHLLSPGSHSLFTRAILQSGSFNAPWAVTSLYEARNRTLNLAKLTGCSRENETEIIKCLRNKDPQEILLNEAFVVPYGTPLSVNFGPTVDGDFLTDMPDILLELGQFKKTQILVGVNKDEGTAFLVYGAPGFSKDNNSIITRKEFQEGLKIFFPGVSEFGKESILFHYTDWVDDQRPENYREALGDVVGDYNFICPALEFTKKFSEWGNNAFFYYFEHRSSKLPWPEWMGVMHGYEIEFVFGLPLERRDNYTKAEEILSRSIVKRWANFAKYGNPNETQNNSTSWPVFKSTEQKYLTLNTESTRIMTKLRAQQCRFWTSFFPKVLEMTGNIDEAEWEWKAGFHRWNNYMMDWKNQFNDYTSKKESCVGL
Chain of AChE (P22303 32-614): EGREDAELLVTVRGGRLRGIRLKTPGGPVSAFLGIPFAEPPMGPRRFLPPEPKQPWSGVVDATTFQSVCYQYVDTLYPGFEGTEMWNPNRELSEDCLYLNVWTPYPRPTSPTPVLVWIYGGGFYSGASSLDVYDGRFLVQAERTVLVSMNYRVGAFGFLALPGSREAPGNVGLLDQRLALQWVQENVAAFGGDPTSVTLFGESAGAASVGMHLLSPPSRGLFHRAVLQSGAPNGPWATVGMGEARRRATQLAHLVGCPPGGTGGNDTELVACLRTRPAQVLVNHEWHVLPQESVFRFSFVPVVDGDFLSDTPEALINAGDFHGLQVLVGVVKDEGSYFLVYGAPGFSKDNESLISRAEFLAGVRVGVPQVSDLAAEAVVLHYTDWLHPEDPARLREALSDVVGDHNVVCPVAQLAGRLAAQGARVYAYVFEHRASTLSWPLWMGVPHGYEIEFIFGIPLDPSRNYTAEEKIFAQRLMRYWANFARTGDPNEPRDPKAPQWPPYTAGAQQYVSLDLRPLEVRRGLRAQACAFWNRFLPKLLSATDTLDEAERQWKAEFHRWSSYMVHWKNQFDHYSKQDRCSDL

| Structure (SMILES) | IC50 (MAO) [µM] | Inhibition Rate of MAO (%) (MAO) | Inhibition Rate (%) MAO–A (MAO–A) [%] | IC50 (MAO–B) [µM] | Inhibition Rate (%) MAO–B (MAO–B) [%] | IC50 (AChE) [µM] | Inhibition Rate (%) AChE (AChE) [%] | IC50 (BuChE) [µM] | Inhibition Rate (%) BuChE (BuChE) [%] | Duration of Immobility (ICR male mice) [s] | DID (%) percentage decrease in immobility duration (ICR male mice) [%] | viability at 24 h (Cytotoxicity, MTT method) [%] |
| --- | --- | --- | --- | --- | --- | --- | --- | --- | --- | --- | --- | --- |
| O=C(CN1CCc2ccccc2[C@H]1c1ccccc1)Nc1nc2c(Br)cccc2s1 [Compound 4d, (R)–N–(4–bromobenzo[d]thiazol–2–yl)–2–(1–phenyl–3,4–dihydroisoquinolin–2(1H)–yl)acetamide] | 64.8 ± 4.2 | 43.37 | 18.05 | 3.26 ± 2.78 | 46.00 | > 150 | 0.55 | 14.6 ± 5.81 | 77.76 | 62.3 ± 14.0 | 65.06 | > 90 |
| Cc1ccc2nc(NC(=O)CN3CCc4ccccc4[C@H]3c3ccccc3)sc2c1 [Compound 4i, (R)–N–(6–methylbenzo[d]thiazol–2–yl)–2–(1–phenyl–3,4–dihydroisoquinolin–2(1H)–yl)acetamide] | 18.5 ± 1.69 | 26.46 | 2.51 | 16.5 ± 3.59 | 61.17 | > 150 | 2.21 | 19.2 ± 2.72 | 47.68 | 83.8 ± 13.6 | 53.05 | > 90 |
| Cc1cccc2sc(NC(=O)CN3CCc4ccccc4[C@H]3c3ccccc3)nc12 [Compound 4g, (R)–N–(4–methylbenzo[d]thiazol–2–yl)–2–(1–phenyl–3,4–dihydroisoquinolin–2(1H)–yl)acetamide] | 14.8 ± 5.45 | 57.11 | 9.03 | 12.1 ± 3.47 | 51.39 | > 150 | 1.10 | 30.3 ± 4.59 | 72.64 | 69.0 ± 15.7 | 61.32 | > 90 |
| O=C(CN1CCc2ccccc2[C@H]1c1ccccc1)Nc1nc2ccc(Br)cc2s1 [Compound 4f, (R)–N–(6–bromobenzo[d]thiazol–2–yl)–2–(1–phenyl–3,4–dihydroisoquinolin–2(1H)–yl)acetamide] | 41.8 ± 2.94 | 24.15 | 15.04 | 47.6 ± 1.82 | 46.49 | > 150 | 1.10 | > 150 | 32.32 | 71.7 ± 4.9 | 59.83 | > 90 |
| O=C(CN1CCc2ccccc2[C@H]1c1ccccc1)Nc1nc2cc(Cl)ccc2s1 [Compound 4b, (R)–N–(5–chlorobenzo[d]thiazol–2–yl)–2–(1–phenyl–3,4–dihydroisoquinolin–2(1H)–yl)acetamide] | 38.8 ± 3.76 | 39.27 | 3.01 | 40.8 ± 2.67 | 39.15 | > 150 | 4.42 | 17.6 ± 1.78 | 69.44 | 85.7 ± 8.1 | 51.98 | > 90 |
| O=C(CN1CCc2ccccc2[C@H]1c1ccccc1)Nc1nc2ccc(Cl)cc2s1 [Compound 4c, (R)–N–(6–chlorobenzo[d]thiazol–2–yl)–2–(1–phenyl–3,4–dihydroisoquinolin–2(1H)–yl)acetamide] | 45.9 ± 2.66 | 21.59 | 12.03 | 9.13 ± 4.17 | 48.45 | > 150 | 1.10 | > 150 | 68.80 | 77.0 ± 18.3 | 56.84 | > 90 |
